Measurements from patent US11350582B2, “Plant varieties by application of endocides” (Stephen F. Austin State University, priority 2015, dated 2022).

Columns and labels:
Azolla caroliniana = test: Greenhouse spray test on Carolina mosquito fern; assay type: in vivo; settings: 0.5% concentration; 10 mL spray; fifth day
Protocol: 4-Hydroxybenzoic and 3,4-dihydroxybenzoic acids were also tested against Carolina mosquito fern (Azolla caroliniana Willd.) (family Azollaceae). Six containers (14×15 cm, 0.68 L) with full cover of A. caroliniana were included in the tests: two without any treatments as controls, two were sprayed with 10 mL 0.5% 4-hydroxybenzoic acid each, and the others were sprayed with 10 mL 0.5% 3,4-dihydroxybenzoic acid each. Plant growth and survival status were documented and photographed in each treatment on the fifth day after the treatment.

Salvinia molesta = test: Greenhouse spray test on giant salvinia, living biomass; assay type: in vivo; settings: for type of new growth / decrease of living biomass weight compared to the water control: 1% concentration; for type of new growth: compound alone; for decrease of living biomass weight compared to the water control: nine days after the treatment; for Living Biomass (mean ± s.d.): 10 mL spray on three type III plants per container, day nine
Protocol: General Experimental Procedure: Observations of giant salvinia growth in a greenhouse were performed under 28 different treatment conditions and control conditions with NANOPURE™ water or 0.5% DYNE-AMIC® (methyl esters of C16-C18 fatty acids, polyalkyleneoxide modified polydimethylsiloxane, and alkylphenol ethoxylate 99%, (Helena, Collierville, Tenn., United States)) (v:v).
Materials—4-hydroxybenzoic acid (>95%, HPLC analysis) and 3,4-dihydroxybenzoic acid (>95%) were isolated from S. molesta matter using the method as described in (Li, Wang et al. 2013). Ethylparaben (>99%) was purchased from a commercial source. Each of 4-hydroxybenzoic acid, 3,4-dihydroxybenzoic acid, and ethylparaben were prepared as 50 mL experimental solutions with NANOPURE™ water at the concentration of 0.5, 1.0, 1.5, and 2.0%, respectively. 0.5, 1.0, 1.5, and 2.0% 4-hydroxybenzoic acid, 3,4-dihydroxybenzoic acid, and ethylparaben with 0.5% surfactant DYNE-AMIC® was also prepared as 50 mL experimental solutions with NANOPURE™ water. Mixtures of 4-hydroxybenzoic acid with 3,4-dihydroxybenzoic acid (2:1, w:w) were prepared as 50 mL experimental solutions with NANOPURE™ water at the total concentration of 0.5, 1.0, and 1.5%, respectively. 3,4-dihydroxybenzoic acid was mixed with ethylparaben (2:1, w:w) and prepared as 50 mL experimental solution with NANOPURE™ water at the total concentration of 0.5, 1.0, and 1.5%, respectively.
Bioassay—For each treatment, a total of nine healthy and untreated living plants of S. molesta (type III, the biomass of three plants weighs approximately 10 g) were cultured in tap water in three plastic containers severing as three replications (14×15 cm, 0.68 L) with three plants each in a greenhouse (30° C. during the day time and 20° C. at night). The three plants in each of the three containers per treatment were sprayed with 10 mL NANOPURE™ water, 0.5% DYNE-AMIC®, or the experimental solution. Plant growth and survival status were documented and photographed in each treatment on day nine after the treatment. Pairwise comparisons for all treatments (including Control) in living biomass were made using Tukey test at alpha=0.05, which was done using SAS (SAS 9.4).

S. molesta [1] = test: Mutation induction in giant salvinia by spray, greenhouse (Example 12); assay type: in vivo, Salvinia molesta
Protocol: General Experimental Procedure: 4-hydroxybenzoic acid (>95%, HPLC analysis) and 3,4-dihydroxybenzoic acid (>95%) were isolated from S. molesta matter by using the method as described in Li, Wang et al. 2013. 4-Hydroxybenzoic and 3,4-dihydroxybenzoic acids were prepared as 50 mL experimental solution with NANOPURE™ water at eight concentrations, 0.015, 0.031, 0.063, 0.125, 0.25, 0.5, 1, and 2%, respectively.
In each of 17 containers (14×15 cm, 0.68 L each), nine healthy and untreated living plants of S. molesta were cultured in tap water in a greenhouse (30° C. during the day time and 20° C. at night). The nine plants included three type I plants (approximately 1 g in fresh weight per plant), three type II plants (approximately 2 g per plant), and three type III plants (approximately 4 g per plant). The plants in each container were sprayed with 10 mL NANOPURE™ water or an experimental compound at various concentrations. Plant growth, morphological variation, and survival status were documented and photographed in each treatment for six weeks after the treatment. Then any new developed plants in each container were transferred into a container with new water for 10 weeks of culture observations.

dihuang = settings: in vivo; cited from earlier work
S. molesta [2] = test: Field test in an isolated pond, foliar spray with DAWN dish soap (Example 16); assay type: in vivo, Salvinia molesta; settings: 0.5% with 0.25% soap; for small S. molesta plants dead: 48 h after the first treatment; for new growths induced (small plants): after first treatment; for fate of newly emerged type I plants: after the second treatments; for type III S. molesta plants on the top layer of the dense mats killed or severely injured: within 48 hrs of the first treatment
Protocol: General Experimental Procedure: Field experiments were conducted in an isolated pond in east Texas, United States. The pond was infested with type III S. molesta plants that formed dense mats along the edge and type I and II plants floating on the water surface. 4-hydroxybenzoic and 3,4-dihydroxybenzoic acids were purchased from a commercial source (99.9%, HPLC analysis). 500 m^2 of S. molesta was treated with 50 L 0.5% 4-hydroxybenzoic acid mixed with 0.25% DAWN® dish soap and 500 m^2 of S. molesta was treated with 50 L 0.5% 3,4-dihydroxybenzoic acid mixed with 0.25% DAWN® dish soap by Solo 433 motorized backpack sprayer. Plant growth and survival status were documented through photographs and the living biomass was sampled 48 hrs after each treatment. The experimental species for selectivity tests were mainly common species associate with S. molesta or species growing in nearby habitats. The species included one fern species, Carolina mosquito fern (A. caroliniana), and 11 herbaceous invasive aquatic species of angiosperms (flowering plants), namely, water hyacinth (Eichharnia crassipes (Mart.) Solms) of the family Pontederiaceae, least duckweed (Lemna minuta) and Brazilian watermeal (Wolffia brasillensis Weddell) of the family Araceae, and hydrilla (Hydrilla verticillata (L.f.) Royle) of the family Hydrocharitaceae, alligator weed (Alternanthera philoxeroides Griseb.) of the family Amaranthaceae, knotweed (Polygonum sp.) and redvine (Brunnichia ovata Walter) of the family Polygonaceae, water primrose (Ludwigia sp.) of the family Onagraceae, cattail (Typha latifolia L.) of the family Typhaceae, proliferating bulrush (Isolepis prolifera (Rottb.) R. Br.) of the family Cyperaceae, and coontail (Ceratophyllum demersum L.) of the family Ceratophyllaceae and four woody plants, namely, baldcypress (Taxodium distichum (L.) Rich.) of the family Cupressaceae, loblolly pine (Pinus taeda L.) of the family Pinaceae, Chinese tallow (T. sebifera), and buttonbush (Cephalanthus occidentalis L.) of the family Rubiaceae. At least 30 plants for each of 12 herbaceous species and three seedlings of each of the four woody species were sprayed during the treatment of S. molesta.

[3] = 2% solution, 10 mL spray on nine plants (types I, II, III), six weeks

Row | Structure (SMILES) | A. caroliniana eliminated (Azolla caroliniana) | type of new growth (Salvinia molesta) | decrease of living biomass weight compared to the water control (Salvinia molesta) | Living Biomass (mean ± s.d.) (Salvinia molesta; total concentration 0.5%) | Living Biomass (mean ± s.d.) (Salvinia molesta; total concentration 1.0%) | Living Biomass (mean ± s.d.) (Salvinia molesta; total concentration 1.5%) | Living Biomass (mean ± s.d.) (Salvinia molesta; total concentration 2.0%) | survival and damage of S. molesta plants (S. molesta [1]; [3]) | effect on growth of dihuang (dihuang) | small S. molesta plants dead (S. molesta [2]) | new growths induced (small plants) (S. molesta [2]) | fate of newly emerged type I plants (S. molesta [2]) | type III S. molesta plants on the top layer of the dense mats killed or severely injured (S. molesta [2]) | other results
1 | O=C(O)c1ccc(O)c(O)c1 [3,4-dihydroxybenzoic acid] | 100% | type I only | 76.5% | 17.1 g | 9.2 g | 14.3 g | 5.8 g | killed all of the plants and no new growth was observed | inhibit some growth | > 80% | type I only | all newly emerged type I plants were killed | 100% | mutation induction in S. molesta (S. molesta [1]; 0.25, 0.5, and 1%): induced small leaf mutations; induced new growth type (S. molesta [1]; 0.5% or 1%, six weeks of observation): the new plants remained as type I
2 | O=C(O)c1ccc(O)cc1 [4-Hydroxybenzoic acid] | 100% | type I only | 85.5% | 20.1 g | 4.3 g | 2.3 g | 0 g | died and showed no new growth | inhibit some growth | > 90% | type I only | all newly emerged type I plants were killed | 100% | S. molesta plants eliminated (Salvinia molesta; 2% concentration): 100%; survival and damage of S. molesta plants (S. molesta [1]; 0.125% or lower concentrations, six weeks): no significant damage; survival and damage of S. molesta plants (S. molesta [1]; 0.25% solution, 10 mL spray on nine plants, first week): killed all floating leaves of the small plants (type I and II) and partially injured floating leaves of the type III plants; induced new growth type (S. molesta [1]; 0.25% solution, six weeks): Seven plants developed cupped floating leaves (type II); survival and damage of S. molesta plants (S. molesta [1]; 0.5% solution, 10 mL spray on nine plants): killed almost all floating leaves of the nine treated plant within a week; induced new growth type (S. molesta [1]; 0.5% solution, six weeks): all other newly emerged plants from axillary buds remained as type I; survival and damage of S. molesta plants (S. molesta [1]; 1% solution, 10 mL spray on nine plants (types I, II, III)): all six type I or II plants were dead without new growth within two days of the treatment; induced new growth type (S. molesta [1]; 1% solution, end of second week): three small plants (type I) emerged from the axillary buds of the type III plants
